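Each compound was tested at five concentrations against cells in 96-well plates for 48 hours. GI50: concentration for 50% inhibition of growth.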 Activity calls are given as the source filed them. Cut-off read from the data, not from the text of the source: active = GI50 up to about 1.1 µM and inactive = higher.
Key:
Experiment in all cases: DTP human tumour cell line panel, 48 h
[1] = test system: SK-MEL-5
[2] = test system: 786-0
[3] = test system: EKVX
[4] = test system: LOX IMVI
[5] = test system: M14
[6] = test system: COLO 205
[7] = test system: UACC-257
[8] = test system: SK-MEL-28
[9] = test system: OVCAR-3
[10] = test system: OVCAR-8
[11] = test system: SNB-75
[12] = test system: SK-MEL-2
[13] = test system: NCI-H23
[14] = test system: HCC 2998
[15] = test system: HOP-62
[16] = test system: PC-3
[17] = test system: HCT-15
[18] = test system: MCF7
[19] = test system: NCI-H522
[20] = test system: NCI/ADR-RES
[21] = test system: UACC-62
[22] = test system: SF-295
[23] = test system: RPMI-8226
[24] = test system: TK-10
[25] = test system: U-251
[26] = test system: RXF 393
[27] = test system: HT-29
[28] = test system: SR
[29] = test system: CCRF-CEM
[30] = test system: DU-145
[31] = test system: KM12
[32] = test system: A498
[33] = test system: SK-OV-3
[34] = test system: CAKI-1
[35] = test system: BT-549
[36] = test system: MDA-MB-435
[37] = test system: ACHN
[38] = test system: MDA-N
[39] = test system: NCI-H226
[40] = test system: SF-268
[41] = test system: HCT-116
[42] = test system: T47D
[43] = test system: HL-60
[44] = test system: SW-620
[45] = test system: UO-31
[46] = test system: Malme-3M
[47] = test system: IGROV-1
[48] = test system: SNB-19
[49] = test system: A549
[50] = test system: MDA-MB-231
[51] = test system: OVCAR-4
[52] = test system: K562
[53] = test system: Hs-578T
[54] = test system: SN12C
[55] = test system: OVCAR-5
[56] = test system: SF-539
[57] = test system: NCI-H460
[58] = test system: MOLT-4
[59] = test system: HOP-92

Measured: GI50

CC(=O)O[C@H]1CC[C@@]2(C)[C@@H](CC[C@@H]3[C@@H]2CC(=O)[C@@]2(C)[C@H]3C[C@@H]3CC(C)=CC(=O)[C@@H]32)C1
98.2 µM: [17]
inactive: [1] 40.9 µM | [2] 39.5 µM | [3] 28.9 µM | [4] > 100 µM | [5] 29.7 µM | [6] 58.5 µM | [7] 62.1 µM | [8] > 100 µM | [9] 81.8 µM | [10] 59.7 µM | [11] 30.1 µM | [12] > 100 µM | [13] > 100 µM | [14] 71.3 µM | [15] 55.8 µM | [16] 44.1 µM | [18] 58.3 µM | [19] 39.5 µM | [20] 59 µM | [21] 64.7 µM | [22] 56.1 µM | [23] 16 µM | [24] > 100 µM | [25] > 100 µM | [26] 30.2 µM | [27] 31 µM | [28] 23.5 µM | [29] 36.1 µM | [30] 53.8 µM | [31] 57 µM | [32] > 100 µM | [33] > 100 µM | [34] > 100 µM | [35] 28.3 µM | [36] 58.6 µM | [37] 66.7 µM | [38] 43.1 µM | [39] > 100 µM | [40] 36.2 µM | [41] 49.5 µM | [42] 40 µM | [43] 5.04 µM | [44] > 100 µM | [45] 23.2 µM | [46] 40.6 µM | [47] > 100 µM | [48] > 100 µM | [49] 62.4 µM | [50] > 100 µM | [51] 56.5 µM | [52] 40.5 µM | [53] 20.7 µM | [54] 41 µM | [55] > 100 µM

COC(=O)c1cc(/C=C2\Cc3cc4c(cc3C2=O)CCC4)cc2c1CCC2
> 100 µM: [17]
inactive: [2] > 100 µM | [3] > 100 µM | [4] > 100 µM | [5] > 100 µM | [6] > 100 µM | [7] > 100 µM | [8] > 100 µM | [56] > 100 µM | [9] > 100 µM | [10] > 100 µM | [11] > 100 µM | [12] > 100 µM | [57] > 100 µM | [13] > 100 µM | [14] > 100 µM | [15] > 100 µM | [16] > 100 µM | [18] > 100 µM | [19] > 100 µM | [20] > 100 µM | [21] > 100 µM | [22] > 100 µM | [23] > 100 µM | [58] > 100 µM | [24] > 100 µM | [25] > 100 µM | [27] > 100 µM | [28] > 100 µM | [29] > 100 µM | [30] > 100 µM | [31] > 100 µM | [32] > 100 µM | [33] > 100 µM | [34] > 100 µM | [35] > 100 µM | [36] > 100 µM | [37] > 100 µM | [38] > 100 µM | [39] > 100 µM | [40] > 100 µM | [41] 63 µM | [42] > 100 µM | [43] > 100 µM | [44] > 100 µM | [45] > 100 µM | [46] > 100 µM | [47] > 100 µM | [48] > 100 µM | [49] > 100 µM | [50] > 100 µM | [51] 41.3 µM | [52] > 100 µM | [53] > 100 µM | [54] > 100 µM | [55] > 100 µM

O=C(NCCC(F)(F)C(F)(F)C(F)(F)C(F)(F)F)NC1OC(CO)C(O)C(O)C1O (stereo unspecified)
> 100 µM: [17]
inactive: [1] > 100 µM | [2] > 100 µM | [4] > 100 µM | [5] > 100 µM | [6] > 100 µM | [7] > 100 µM | [8] > 100 µM | [56] > 100 µM | [9] > 100 µM | [11] > 100 µM | [12] > 100 µM | [57] > 100 µM | [13] > 100 µM | [14] > 100 µM | [15] > 100 µM | [16] > 100 µM | [18] > 100 µM | [20] > 100 µM | [21] > 100 µM | [22] > 100 µM | [23] > 100 µM | [58] > 100 µM | [24] > 100 µM | [25] > 100 µM | [59] > 100 µM | [26] > 100 µM | [27] > 100 µM | [28] > 100 µM | [29] > 100 µM | [30] > 100 µM | [31] > 100 µM | [33] > 100 µM | [34] > 100 µM | [35] > 100 µM | [36] > 100 µM | [37] > 100 µM | [38] > 100 µM | [40] > 100 µM | [41] > 100 µM | [42] > 100 µM | [43] > 100 µM | [44] > 100 µM | [45] > 100 µM | [46] > 100 µM | [47] > 100 µM | [48] > 100 µM | [49] > 100 µM | [50] > 100 µM | [51] > 100 µM | [52] > 100 µM | [53] > 100 µM | [54] > 100 µM | [55] > 100 µM

CC(=O)OCC(OC(C)=O)C(OC(C)=O)C(OC(C)=O)C(C=NN(C(C)=O)S(=O)(=O)c1ccc(/C=C2\NC(=O)N(C)C2=O)cc1)OC(C)=O (stereo unspecified)
21.3 µM: [17]
inactive: [1] 29.6 µM | [2] 23.7 µM | [3] 23.2 µM | [4] 11.9 µM | [5] 42.7 µM | [6] 29.3 µM | [7] 44.8 µM | [56] 26.7 µM | [9] 29.7 µM | [10] 27.2 µM | [11] 33.7 µM | [12] 20.4 µM | [57] 18.8 µM | [13] 36.1 µM | [14] 16.3 µM | [15] 26.3 µM | [16] 27.9 µM | [18] 30.2 µM | [20] 73.3 µM | [21] 10.3 µM | [22] 42.8 µM | [23] 18.5 µM | [58] 10.6 µM | [25] 22.6 µM | [26] 13.4 µM | [27] 24.7 µM | [28] 11.8 µM | [30] 29.5 µM | [31] > 100 µM | [32] 38 µM | [33] 31.4 µM | [34] 45.4 µM | [35] 12.4 µM | [36] 33.1 µM | [37] 37.4 µM | [38] 32.6 µM | [39] 22.8 µM | [40] 26.2 µM | [41] 17.1 µM | [42] 15.9 µM | [44] 26.4 µM | [45] 35.9 µM | [46] 17.5 µM | [47] 18.8 µM | [48] 38.2 µM | [49] 47 µM | [50] 33.5 µM | [51] 27 µM | [52] 36.3 µM | [53] 25.3 µM | [54] 30.6 µM | [55] 37.8 µM

CC(=O)NC1C(OCc2ccccc2)OC(CO)C(O)C1OCC(=O)N1CCCC1C(=O)N[C@@H](CCC(=O)NCCNCCNc1c2ccccc2nc2cccc([N+](=O)[O-])c12)C(N)=O (stereo partly specified)
2.11 µM: [17]
active: [57] 0.849 µM | [18] 0.724 µM | [23] 0.37 µM | [30] 0.968 µM | [32] 1.04 µM | [41] 0.979 µM | [52] 0.655 µM
inactive: [1] 1.48 µM | [2] 2.14 µM | [3] 7.57 µM | [4] 4.55 µM | [5] 2.92 µM | [6] 1.88 µM | [7] 6.28 µM | [8] 6.68 µM | [56] 3.27 µM | [9] 5.65 µM | [10] 2.19 µM | [11] 6.64 µM | [12] 3.67 µM | [13] 2.51 µM | [14] 2.67 µM | [15] 2.54 µM | [16] 2.94 µM | [19] 1.45 µM | [20] 7.45 µM | [21] 5.24 µM | [22] 5.33 µM | [58] 1.33 µM | [24] 4.27 µM | [25] 2.44 µM | [59] 1.37 µM | [26] 2.17 µM | [27] 1.46 µM | [29] 1.69 µM | [31] 3.46 µM | [33] 10.4 µM | [34] 1.94 µM | [35] 4.82 µM | [36] 2.65 µM | [37] 2.11 µM | [38] 2.88 µM | [39] 5.6 µM | [40] 2.41 µM | [42] 5.78 µM | [43] 3.78 µM | [44] 1.31 µM | [45] 3.75 µM | [46] 2.57 µM | [47] 2.56 µM | [48] 5.5 µM | [49] 1.52 µM | [50] 2.5 µM | [51] 3.91 µM | [53] 3.89 µM | [54] 1.39 µM | [55] 6.81 µM
